Converted amounts (≈) assume the structure as drawn.
Assays:
Assay type in all cases: cell-based
Escherichia coli NIHJ = assay: antimicrobial activity, minimum inhibitory concentration, Escherichia coli NIHJ
Proteus vulgaris HX 19 = assay: antimicrobial activity, minimum inhibitory concentration, Proteus vulgaris HX 19; conditions: HX19
Procedure: (§1) The antimicrobial activities of the compounds prepared in the previous Examples were determined in a usual manner and the minimum inhibitory concentrations (in terms of μg/ml) are set forth in the Table below.

[1] = test system: Pseudomonas aeruginosa IID 5142; assay: antimicrobial activity, minimum inhibitory concentration, Pseudomonas aeruginosa IID 5142; conditions: IID5142
Procedure: as §1

Serratia No. 115 = assay: antimicrobial activity, minimum inhibitory concentration, Serratia No. 115
Procedure: as §1

[2] = test system: Enterobacter aerogenes No. 101; assay: antimicrobial activity, minimum inhibitory concentration, Enterobacter aerogenes No. 101; conditions: Klebsiella aerogenes
Procedure: as §1

Row | MIC (Escherichia coli NIHJ) [µg/mL] | MIC (Proteus vulgaris HX 19) [µg/mL] | MIC [1] [µg/mL] | MIC (Serratia No. 115) [µg/mL] | MIC [2] [µg/mL] | SMILES
1 | 0.78 (≈ 1.15 µM) | 0.2 (≈ 0.294 µM) | 1.56 (≈ 2.3 µM) | 3.13 (≈ 4.6 µM) | 3.13 (≈ 4.6 µM) | CO[C@@]1(NC(=O)[C@H](NC(=O)c2cnc3cccnc3c2O)c2ccc(O)cc2)C(=O)N2C(C(=O)O)=C(CSc3nnnn3C)CS[C@@H]21 [Example 2, 3-[(1-Methyltetrazol-5-yl)thiomethyl]-7α-methoxy-7β-[D-2-(4-hydroxy-1,5-naphthyridine-3-carbonamido)-2-(p-hydroxyphenyl)acetamido]-3-cephem-4-carboxylic Acid]
2 | 6.25 (≈ 9.4 µM) | 0.78 (≈ 1.17 µM) | 6.25 (≈ 9.4 µM) | 12.5 (≈ 18.8 µM) | 6.25 (≈ 9.4 µM) | CO[C@@]1(NC(=O)C(NC(=O)c2cnc3cncnc3c2O)c2ccccc2)C(=O)N2C(C(=O)O)=C(CSc3nnnn3C)CS[C@@H]21 (stereo partly shown) [Example 7]
3 | 12.5 (≈ 22.5 µM) | 0.39 (≈ 0.701 µM) | 6.25 (≈ 11.2 µM) | 100 (≈ 180 µM) | 25 (≈ 44.9 µM) | CO[C@@]1(NC(=O)C(NC(=O)c2cnccc2O)c2ccccc2)C(=O)N2C(C(=O)O)=C(COC(C)=O)CS[C@@H]21 (stereo partly shown) [Example 8]
4 | 12.5 (≈ 19.9 µM) | 0.39 (≈ 0.62 µM) | 6.25 (≈ 9.94 µM) | 50 (≈ 79.5 µM) | 12.5 (≈ 19.9 µM) | CO[C@@]1(NC(=O)C(NC(=O)c2cnccc2O)c2ccc(O)cc2)C(=O)N2C(C(=O)O)=C(CSc3nnnn3C)CS[C@@H]21 (stereo partly shown) [Example 9]
5 | 12.5 (≈ 19.9 µM) | 0.39 (≈ 0.619 µM) | 12.5 (≈ 19.9 µM) | 50 (≈ 79.4 µM) | 12.5 (≈ 19.9 µM) | CO[C@@]1(NC(=O)C(NC(=O)c2cncnc2O)c2ccc(O)cc2)C(=O)N2C(C(=O)O)=C(CSc3nnnn3C)CS[C@@H]21 (stereo partly shown) [Example 10]
6 | 12.5 (≈ 22.4 µM) | 0.78 (≈ 1.4 µM) | 12.5 (≈ 22.4 µM) | 100 (≈ 179 µM) | 50 (≈ 89.5 µM) | CO[C@@]1(NC(=O)C(NC(=O)c2cncnc2O)c2ccccc2)C(=O)N2C(C(=O)O)=C(COC(N)=O)CS[C@@H]21 (stereo partly shown) [Example 11]
7 | 12.5 (≈ 19.9 µM) | 0.78 (≈ 1.24 µM) | 25 (≈ 39.7 µM) | 100 (≈ 159 µM) | 25 (≈ 39.7 µM) | CO[C@@]1(NC(=O)C(NC(=O)c2ccnnc2O)c2ccc(O)cc2)C(=O)N2C(C(=O)O)=C(CSc3nnnn3C)CS[C@@H]21 (stereo partly shown) [Example 12]
8 | 12.5 (≈ 19.4 µM) | 0.78 (≈ 1.21 µM) | 25 (≈ 38.7 µM) | 100 (≈ 155 µM) | 25 (≈ 38.7 µM) | CO[C@@]1(NC(=O)C(NC(=O)c2ccnnc2O)c2ccc(O)cc2)C(=O)N2C(C(=O)O)=C(CSc3nnc(C)s3)CS[C@@H]21 (stereo partly shown) [Example 13]
9 | 12.5 (≈ 18.8 µM) | 1.56 (≈ 2.35 µM) | 25 (≈ 37.7 µM) | 100 (≈ 151 µM) | 25 (≈ 37.7 µM) | CO[C@@]1(NC(=O)C(NC(=O)c2ccnnc2O)c2ccc(O)cc2)C(=O)N2C(C(=O)O)=C(CSc3n[nH]c(=S)s3)CS[C@@H]21 (stereo partly shown) [Example 14]
10 | 12.5 (≈ 19.6 µM) | 1.56 (≈ 2.45 µM) | 12.5 (≈ 19.6 µM) | 100 (≈ 157 µM) | 50 (≈ 78.4 µM) | CO[C@@]1(NC(=O)C(NC(=O)c2cnc3nc(C)ccc3c2O)c2ccc(O)cc2)C(=O)N2C(C(=O)O)=C(COC(C)=O)CS[C@@H]21 (stereo partly shown) [Example 15]
11 | 12.5 (≈ 21.7 µM) | 1.56 (≈ 2.71 µM) | 6.25 (≈ 10.9 µM) | 50 (≈ 86.9 µM) | 25 (≈ 43.4 µM) | CO[C@@]1(NC(=O)C(NC(=O)c2cnccc2O)c2ccccc2)C(=O)N2C(C(=O)[O-])=C(C[n+]3ccccc3)CS[C@@H]21 (stereo partly shown) [Example 16]
12 | 3.13 (≈ 4.4 µM) | 0.2 (≈ 0.281 µM) | 3.13 (≈ 4.4 µM) | 6.25 (≈ 8.79 µM) | 6.25 (≈ 8.79 µM) | COc1cnc2c(O)c(C(=O)NC(C(=O)N[C@]3(OC)C(=O)N4C(C(=O)O)=C(CSc5nnnn5C)CS[C@@H]43)c3ccc(O)cc3)cnc2n1 (stereo partly shown) [Example 17]
13 | 12.5 (≈ 18.6 µM) | 0.78 (≈ 1.16 µM) | 6.25 (≈ 9.31 µM) | 50 (≈ 74.4 µM) | 12.5 (≈ 18.6 µM) | CO[C@@]1(NC(=O)C(NC(=O)c2cnc3nc(SC)ncc3c2O)c2ccc(O)cc2)C(=O)N2C(C(=O)O)=C(COC(N)=O)CS[C@@H]21 (stereo partly shown) [Example 18]
14 | 6.25 (≈ 8.46 µM) | 0.78 (≈ 1.06 µM) | 3.13 (≈ 4.24 µM) | 25 (≈ 33.8 µM) | 12.5 (≈ 16.9 µM) | CO[C@@]1(NC(=O)C(NC(=O)c2cnc3nc(SC)ncc3c2O)c2ccc(O)cc2)C(=O)N2C(C(=O)O)=C(CSc3ccc(O)nn3)CS[C@@H]21 (stereo partly shown) [Example 19]
15 | 3.13 (≈ 3.95 µM) | 0.39 (≈ 0.492 µM) | 3.13 (≈ 3.95 µM) | 6.25 (≈ 7.89 µM) | 6.25 (≈ 7.89 µM) | CO[C@@]1(NC(=O)C(NC(=O)c2cnc3ccc(SC)nc3c2O)c2ccc(O)c(Cl)c2)C(=O)N2C(C(=O)O)=C(CSc3nnc(CO)s3)CS[C@@H]21 (stereo partly shown) [Example 20]
16 | 1.56 (≈ 2.01 µM) | 0.39 (≈ 0.503 µM) | 3.13 (≈ 4.04 µM) | 12.5 (≈ 16.1 µM) | 6.25 (≈ 8.06 µM) | CNc1nnc(SCC2=C(C(=O)O)N3C(=O)[C@](NC(=O)C(NC(=O)c4cnc5ccc(OC)nc5c4O)c4ccc(O)c(Cl)c4)(OC)[C@H]3SC2)s1 (stereo partly shown) [Example 21]
17 | 3.13 (≈ 4.25 µM) | 0.39 (≈ 0.53 µM) | 3.13 (≈ 4.25 µM) | 25 (≈ 34 µM) | 6.25 (≈ 8.49 µM) | CCN(CC)c1ccc2ncc(C(=O)NC(C(=O)N[C@]3(OC)C(=O)N4C(C(=O)O)=C(CSc5cnn[nH]5)CS[C@@H]43)c3ccc(O)cc3)c(O)c2n1 (stereo partly shown) [Example 22]
18 | 12.5 (≈ 21.8 µM) | 0.78 (≈ 1.36 µM) | 12.5 (≈ 21.8 µM) | 100 (≈ 174 µM) | 50 (≈ 87.2 µM) | CO[C@@]1(NC(=O)C(NC(=O)c2cccnc2O)c2ccc(O)cc2)C(=O)N2C(C(=O)O)=C(COC(N)=O)CS[C@@H]21 (stereo partly shown) [Example 23]
19 | 12.5 (≈ 20.2 µM) | 0.78 (≈ 1.26 µM) | 12.5 (≈ 20.2 µM) | 50 (≈ 80.8 µM) | 25 (≈ 40.4 µM) | CO[C@@]1(NC(=O)C(NC(=O)c2ncccc2O)c2ccccc2)C(=O)N2C(C(=O)[O-])=C(C[n+]3ccc(C(N)=O)cc3)CS[C@@H]21 (stereo partly shown) [Example 24]
20 | 12.5 (≈ 17.6 µM) | 0.78 (≈ 1.1 µM) | 6.25 (≈ 8.81 µM) | 50 (≈ 70.5 µM) | 25 (≈ 35.2 µM) | CO[C@@]1(NC(=O)C(NC(=O)c2cnc3nc(N4CCNCC4)ncc3c2O)c2ccc(O)cc2)C(=O)N2C(C(=O)O)=C(COC(N)=O)CS[C@@H]21 (stereo partly shown) [Example 25]
21 | 6.25 (≈ 7.97 µM) | 0.39 (≈ 0.498 µM) | 6.25 (≈ 7.97 µM) | 12.5 (≈ 15.9 µM) | 12.5 (≈ 15.9 µM) | CO[C@@]1(NC(=O)C(NC(=O)c2cnc3nc(N4CCCC4)cnc3c2O)c2ccc(O)cc2)C(=O)N2C(C(=O)O)=C(CSc3n[nH]c(=S)s3)CS[C@@H]21 (stereo partly shown) [Example 26]
22 | 25 (≈ 38.7 µM) | 1.56 (≈ 2.42 µM) | 25 (≈ 38.7 µM) | 50 (≈ 77.4 µM) | 50 (≈ 77.4 µM) | CO[C@@]1(NC(=O)C(NC(=O)c2nccnc2O)c2ccc(O)cc2)C(=O)N2C(C(=O)O)=C(CSc3nnc(C)s3)CS[C@@H]21 (stereo partly shown) [Example 27]
23 | 1.56 (≈ 2.3 µM) | 0.39 (≈ 0.574 µM) | 3.13 (≈ 4.6 µM) | 6.25 (≈ 9.2 µM) | 6.25 (≈ 9.2 µM) | COC1(NC(=O)C(NC(=O)c2cc3ncccc3nc2O)c2ccc(O)cc2)C(=O)N2C(C(=O)O)=C(CSc3nnnn3C)CSC21 (stereo not shown) [Example 28]
24 | 12.5 (≈ 18.3 µM) | 0.78 (≈ 1.14 µM) | 6.25 (≈ 9.13 µM) | 12.5 (≈ 18.3 µM) | 12.5 (≈ 18.3 µM) | COC1(NC(=O)C(NC(=O)c2cnc3sccc3c2O)c2ccc(O)cc2)C(=O)N2C(C(=O)O)=C(CSc3nnnn3C)CSC21 (stereo not shown) [Example 29]
25 | 6.25 (≈ 9.91 µM) | 0.39 (≈ 0.618 µM) | 6.25 (≈ 9.91 µM) | 12.5 (≈ 19.8 µM) | 12.5 (≈ 19.8 µM) | COC1(NC(=O)C(NC(=O)c2cnc3scnc3c2O)c2ccc(O)cc2)C(=O)N2C(C(=O)O)=C(COC(N)=O)CSC21 (stereo not shown) [Example 30]
26 | 3.13 (≈ 4.5 µM) | 0.39 (≈ 0.561 µM) | 3.13 (≈ 4.5 µM) | 25 (≈ 35.9 µM) | 6.25 (≈ 8.98 µM) | COC1(NC(=O)C(NC(=O)c2cnc3cccnc3c2O)c2cccc(O)c2)C(=O)N2C(C(=O)O)=C(CSc3nnc(C)s3)CSC21 (stereo not shown) [Example 31]
27 | 3.13 (≈ 4.59 µM) | 0.39 (≈ 0.572 µM) | 3.13 (≈ 4.59 µM) | 25 (≈ 36.7 µM) | 6.25 (≈ 9.17 µM) | COC1(NC(=O)C(NC(=O)c2cnc3cccnc3c2O)C2=CCC=CC2)C(=O)N2C(C(=O)O)=C(CSc3nnc(C)s3)CSC21 (stereo not shown) [Example 32]
28 | 12.5 (≈ 22.3 µM) | 0.39 (≈ 0.697 µM) | 12.5 (≈ 22.3 µM) | 100 (≈ 179 µM) | 50 (≈ 89.4 µM) | COC1(NC(=O)C(NC(=O)c2cnccc2O)C2=CCC=CC2)C(=O)N2C(C(=O)O)=C(COC(N)=O)CSC21 (stereo not shown) [Example 33]

Row | SMILES | MIC (Escherichia coli NIHJ) [µg/mL] | MIC (Proteus vulgaris HX 19) [µg/mL] | MIC [1] [µg/mL] | MIC (Serratia No. 115) [µg/mL] | MIC [2] [µg/mL]
29 | CO[C@@]1(NC(=O)[C@H](NC(=O)c2cnc3cccnc3c2O)c2ccccc2)C(=O)N2C(C(=O)O)=C(COC(C)=O)CS[C@@H]21 [Example 1, 3-Acetoxymethyl-7α-methoxy-7β-[D-2-(4-hydroxy-1,5-naphthyridine-3-carbonamido)-2-phenylacetamido]-3-cephem-4-carboxylic Acid] | 3.13 (≈ 5.15 µM) | 0.39 (≈ 0.642 µM) | 1.56 (≈ 2.57 µM) | 50 (≈ 82.3 µM) | 6.25 (≈ 10.3 µM)
30 | CO[C@@]1(NC(=O)[C@H](NC(=O)c2cnc3cccnc3c2O)c2ccc(O)cc2)C(=O)N2C(C(=O)O)=C(CSc3cnn[nH]3)CS[C@@H]21 [Example 3, 3-[(Triazol-5-yl)thiomethyl]-7α-methoxy-7β-[D-2-(4-hydroxy-1,5-naphthyridine-3-carbonamido)-2-(p-hydroxyphenyl)acetamido]-3-cephem-4-carboxylic Acid] | 3.13 (≈ 4.71 µM) | 0.78 (≈ 1.17 µM) | 3.13 (≈ 4.71 µM) | 25 (≈ 37.6 µM) | 6.25 (≈ 9.4 µM)
31 | CO[C@@]1(NC(=O)[C@H](NC(=O)c2cnc3cccnc3c2O)c2ccccc2)C(=O)N2C(C(=O)[O-])=C(C[n+]3ccccc3)CS[C@@H]21 [Example 4, 3-Pyridiniummethyl-7α-methoxy-7β-[D-2-(4-hydroxy-1,5-naphthyridine-3-carbonamido)-2-phenylacetamido]-3-cephem-4-carboxylate] | 3.13 (≈ 4.99 µM) | 0.78 (≈ 1.24 µM) | 6.25 (≈ 9.97 µM) | 25 (≈ 39.9 µM) | 12.5 (≈ 19.9 µM)
32 | CO[C@@]1(NC(=O)[C@H](NC(=O)c2cnc3cccnc3c2O)c2ccc(O)cc2)C(=O)N2C(C(=O)O)=C(COC(N)=O)CS[C@@H]21 [Example 5, 3-Carbamoyloxymethyl-7α-methoxy-7β-[D-2-(4-hydroxy-1,5-naphthyridine-3-carbonamido)-2-(p-hydroxyphenyl)-acetamido]-3-cephem-4-caboxylic Acid] | 3.13 (≈ 5.01 µM) | 0.39 (≈ 0.624 µM) | 3.13 (≈ 5.01 µM) | 50 (≈ 80.1 µM) | 6.25 (≈ 10 µM)

From patent publication US4226863A, “7-Methoxy cephalosporins” (Sumitomo Chemical Company, Limited, priority 1975, dated 1980)
